This note sets out measurements from US8076352B2, “Administration of carboline derivatives useful in the treatment of cancer and other diseases” (PTC Therapeutics, Inc., priority 2004, dated 2011).

The test system of this assay is hypoxia-inducible endogenous VEGF expression in HeLa cells. Put plainly: Hypoxia-inducible endogenous VEGF expression, VEGF ELISA of conditioned media (dose-response EC50). It counts as cell-based. As to conditions: Homo sapiens, HeLa cells under hypoxic conditions. Summed up: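 Secreted VEGF was quantified by ELISA against a per-assay standard curve after HeLa cells spent 24-48 h in 1% O2, 5% CO2, N2 balance with or without compound. Across a series of, e.g., seven concentrations, percentage inhibition (max 100%, min 0%) gave EC50 and CC50 values.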

Molecules are shown by their SMILES.

As for `COCCNC(=S)N1CCc2c([nH]c3ccccc23)C1c1ccc(OC)cc1` (stereo not drawn) [Compound 290], the EC50 is above 1000 nM.

As for `Oc1cccc(C2NCCc3c2[nH]c2ccc(Cl)cc32)c1` (stereo not drawn) [Compound 291], the EC50 was above 1000 nM.

With `COc1ccc(C2NCCc3c2[nH]c2ccc(OCc4ccccc4)cc32)cc1` (stereo not drawn) [Compound 292], the EC50 was above 1000 nM.

Consider `COC(=O)N1CCc2c([nH]c3ccc(OCc4ccccc4)cc23)C1c1ccccc1` (stereo not drawn) [Compound 293], for which the EC50 was above 1000 nM.

Consider `CC(=O)Nc1ccc(C2NCCc3c2[nH]c2ccc(Cl)cc32)cc1` (stereo not drawn) [Compound 294], for which the EC50 is above 1000 nM.

Consider `COc1ccc(C2c3[nH]c4ccccc4c3CCN2C(=O)NC2CCCCC2)cc1` (stereo not drawn) [Compound 295], for which the concentration for a half-maximal effect (EC50) is above 1000 nM.

As for `Oc1ccc(C2NCCc3c2[nH]c2ccc(Cl)cc32)cc1` (stereo not drawn) [Compound 296], the EC50 is above 1000 nM.

As for `CN(C)c1ccc(C2NCCc3c2[nH]c2ccc(Cl)cc32)cc1` (stereo not drawn) [Compound 297], the 50% effective concentration (EC50) was above 1000 nM.

`CCC1NCCc2c1[nH]c1ccc(Cl)cc21` (stereo not drawn) [Compound 298] yielded an EC50 above 1000 nM.

Compound `FC(F)(F)c1cccc(C2NCCc3c2[nH]c2ccc(Cl)cc32)c1` (stereo not drawn) [Compound 299] showed an EC50 above 1000 nM.

As for `COc1ccc(C2NC(C(=O)O)Cc3c2[nH]c2ccc(Br)cc32)cc1` (stereo not drawn) [Compound 300], the EC50 was above 1000 nM.

On to `COc1ccccc1C1NCCc2c1[nH]c1ccc(Cl)cc21` (stereo not drawn) [Compound 301], for which the half-maximal effective concentration (EC50) is above 1000 nM.

On to `COc1ccc(C2c3[nH]c4ccccc4c3CCN2C(=O)Nc2ccccc2)cc1` (stereo not drawn) [Compound 302], for which the EC50 is above 1000 nM.

Compound `c1ccc(COc2ccc3[nH]c4c(c3c2)CCNC4c2ccccc2)cc1` (stereo not drawn) [Compound 303] yielded an EC50 above 1000 nM.

In turn, `COc1ccc(C2c3[nH]c4ccccc4c3CCN2C(=O)Nc2ccc(C(C)C)cc2)cc1` (stereo not drawn) [Compound 304] returned an EC50 above 1000 nM.

On to `Cc1cccc2c3c([nH]c12)C(c1cccc(Br)c1)NCC3` (stereo not drawn) [Compound 305], for which the EC50 is above 1000 nM.

Consider `COc1ccc(C2c3[nH]c4ccccc4c3CCN2C(=O)NC(C)C)cc1` (stereo not drawn) [Compound 306], for which the concentration giving a half-maximal response (EC50) was above 1000 nM.

Compound `CCNC(=O)N1CCc2c([nH]c3ccccc23)C1c1ccc(OC)cc1` (stereo not drawn) [Compound 307] had an EC50 above 1000 nM.

Regarding `COc1ccc(C2c3[nH]c4ccccc4c3CCN2C(=S)Nc2cccc(F)c2)cc1` (stereo not drawn) [Compound 308], the EC50 was above 1000 nM.

Regarding `CS(=O)(=O)c1ccc(C2c3[nH]c4ccc(Cl)cc4c3CCN2C(=O)N2CCOCC2)cc1` (stereo not drawn) [Compound 309], the EC50 was 8 to 40 nM.

The compound `Clc1ccc2[nH]c3c(c2c1)CCNC3c1cccs1` (stereo not drawn) [Compound 310] returned an EC50 above 1000 nM.

On to `c1ccc(COc2ccc3[nH]c4c(c3c2)CCNC4c2ccoc2)cc1` (stereo not drawn) [Compound 311], for which the EC50 was above 1000 nM.

`COc1ccc(C2c3[nH]c4ccccc4c3CCN2C(=S)NC2CCCCC2)cc1` (stereo not drawn) [Compound 312] came in with an EC50 above 1000 nM.

`COc1ccc(C2NCCc3c2[nH]c2ccccc32)cc1` (stereo not drawn) [Compound 313] registered an EC50 above 1000 nM.

Turning to `O=C(O)C1Cc2c([nH]c3ccccc23)C(c2ccccc2)N1` (stereo not drawn) [Compound 314], the EC50 was above 1000 nM.

For `COc1ccc(C2NCCc3c2[nH]c2ccc(F)cc32)cc1` (stereo not drawn) [Compound 315], the EC50 is above 1000 nM.

As for `COC(=O)c1cccc(NC(=S)N2CCc3c([nH]c4ccccc34)C2c2ccc(OC)cc2)c1` (stereo not drawn) [Compound 316], the EC50 was above 1000 nM.

In turn, `COc1ccc(C2c3[nH]c4ccccc4c3CCN2C(=S)Nc2ccc(C)cc2)cc1` (stereo not drawn) [Compound 317] returned an EC50 above 1000 nM.

In the case of `COc1cccc(C2NC(CO)Cc3c2[nH]c2ccccc32)c1` (stereo not drawn) [Compound 318], the EC50 is above 1000 nM.

Consider `Clc1ccc2[nH]c3c(c2c1)CCNC3c1cccnc1` (stereo not drawn) [Compound 319], for which the EC50 was above 1000 nM.

For the compound `c1ccc(COc2ccc3[nH]c4c(c3c2)CCNC4c2cccnc2)cc1` (stereo not drawn) [Compound 320], the EC50 is above 1000 nM.

`COc1ccc2c3c([nH]c2c1)C(c1ccccc1)NCC3` (stereo not drawn) [Compound 321]: the EC50 is above 1000 nM.

The compound `COc1ccc2[nH]c3c(c2c1)CCNC3c1ccccc1` (stereo not drawn) [Compound 322] came in with an EC50 above 1000 nM.
